Measured values from patent US12599614B2, “Methods and pharmaceutical compositions for the treatment and prophylaxis of microbial infectious diseases and associated inflammatory disorders and for the treatment and prophylaxis of aging and associated diseases” (MD VAULT LLC, priority 2020, dated 2026).

Assays:
2-year-old aged mice = experiment: Senescence biomarkers in tissues of aged mice; assay type: in vivo; conditions: aged liver, muscle and skin tissues; ip 20 mg/kg X and/or 4 mg/kg Y daily for 30 days; vs DMSO vehicle; P<0.01
Description: To test if the drugs X and Y may reduce senescence in the tissues of aged mice, we intraperitoneally injected 2-year-old aged mice (n=10/group) with 20 mg/kg of X, or 4 mg/kg of Y, or both 20 mg/kg of X and 4 mg/kg of Y, relative to the DMSO vehicle control, on a daily basis for 30 days. Staining of liver, muscle and skin tissue sections for SA-β-gal activity was performed using the Senescence β-Galactosidase Staining Kit (Cell Signaling Technology) according to manufacturer's protocols. Protein expression of p16INK4A and H3K9me3 were evaluated by densitometric quantification of Westem blots of the liver, muscle and skin tissue samples.

[1] = system: primary human skeletal muscle cells; experiment: Metabolism and gene pathway profiling of muscle cells; assay type: cell-based; conditions: single agent: X alone 100 mg/L or Y alone 2 mg/L
Description: Calorie restriction is known to ameliorate the effects of aging, by altering cellular bioenergetic stress and promoting mitochondrial activity, the unfolded protein response (UPR), the secretion of beneficial cytokines, and an increase in stem cell regeneration. To test how the drug combination X and Y mimics the effects of calorie restriction (CR), we profiled the metabolism of primary human skeletal muscle cells at passage 15 treated with X (100 mg/L) and Y (2 mg/L), compared to X alone (100 mg/L) or Y alone (2 mg/L).

[2] = system: 1 year-old aged diabetic mice; experiment: Tissue regeneration in 1 year-old aged diabetic mice, oral gavage; assay type: in vivo; conditions: single agent: X alone 20 mg/kg or Y alone 4 mg/kg, daily oral gavage, 6 weeks
[3] = system: 1 year-old aged mice treated with intratracheal bleomycin; experiment: Bleomycin lung fibrosis in aged mice (COPD/IPF model); assay type: in vivo; conditions: daily oral gavage over 3 weeks; intratracheal bleomycin 3 mg/kg
Description: Daily oral gavage of the drug combination X and Y, relative to X alone or Y alone or the vehicle over 3 weeks, led to decreases in aging-associated lung fibrosis in 1 year-old aged mice treated with intratracheal bleomycin (3 mg/kg in 50 ul phosphate buffered saline or PBS) to model chronic obstructive pulmonary disease (COPD) and idiopathic pulmonary fibrosis (IPF).

[4] = system: adult female rats (PCOS model); experiment: Estrus cycles in DHEA/diet PCOS rat model; assay type: in vivo; conditions: daily oral gavage over 6 weeks; DHEA 60 mg/kg sc and high fat-high sugar-high cholesterol diet
Description: Daily oral gavage of the drug combination X and Y, relative to X alone or Y alone or the vehicle over 6 weeks, led to restoration of estrus cycles in adult female rats treated with subcutaneous dehydroepiandrosterone (DHEA; 60 mg/kg body weight) and fed with a high fat-high sugar-high cholesterol diet ad libitum to model premature ovarian aging in polycystic ovary syndrome (PCOS).

| Compound | SA-β-gal activity staining (senescence biomarker) (2-year-old aged mice) | beneficial anti-aging effects seen with X and Y (ATP, acetyl-CoA, acetylation, Pink1, mitochondrial protein and DNA, UPR, ROS, cytokine and stem cell pathways) [1] | beneficial anti-aging effects seen with X and Y (liver, β islet, hair, wound, muscle regeneration, body mass) [2] | lung fibrosis (% fibrotic area, Masson trichrome staining, ImageJ) [3] | estrus cycles (vaginal smear analysis) [4] |
| --- | --- | --- | --- | --- | --- |
| COc1ccc(CN2CCNCC2)c(OC)c1OC [Y, 1-[(2,3,4-trimethoxyphenyl)methyl]piperazine] | but not X alone or Y alone | None of these beneficial anti-aging effects were observed | None of these beneficial anti-aging effects were observed | None of these beneficial anti-aging effects were observed | all of the rats were frozen in either the estrus or proestrus stages |
| CC(=O)Oc1ccccc1C(=O)O [X, 2-acetoxybenzoic acid] | but not X alone or Y alone | None of these beneficial anti-aging effects were observed | None of these beneficial anti-aging effects were observed | None of these beneficial anti-aging effects were observed | all of the rats were frozen in either the estrus or proestrus stages |
